The text below walks through data of US10793543B2, “Selective C-KIT kinase inhibitor” (PRECEDO PHARMACEUTICALS CO., LTD, priority 2016, dated 2020).

Assay [1] relates to Tel-cKit-BaF3 cells (KIT WT). Kind of assay: Cell proliferation, CCK-8, Tel-cKit-BaF3. The format is cell-based. As to conditions: Mus musculus, 72 hours. The source says: (§1) In addition, in the present example, further uses: mouse P210/BaF3 (stably expressing P210 Bcr-Abl mutant gene), mouse Tel-ABL-BaF3 (stably expressing wild-type ABL kinase), mouse Tel-cKit-BaF3 (stably expressing C-KITwild-type kinase), mouse Tel-cKit/V559D-BaF3 (stably expressing C-KIT V559D mutant kinase), mouse Tel-cKit/V559D/V654A-BaF3 (stably expressing C-KIT V559D/V654A mutant kinase), mouse Tel-cKit/N822K-BaF3 (stably expressing C-KIT N822K mutant kinase), mouse Tel-cKit/V654A-BaF3 (stably expressing C-KIT V654A mutant kinase), mouse Tel-cKit/L567P-BaF3 (stably expressing C-KIT L567P mutant kinase), mouse Tel-cKit/T670I-BaF3 (stably expressing C-KIT T670I mutant kinase), mouse Tel-PDGFRα-BaF3 (stably expressing PDGFRα kinase), mouse Tel-PDGFRβ-BaF3 (stably expressing PDGFRβ kinase), mouse Tel-VEGFR2-BaF3 (stably expressing VEGFR2 kinase), mouse Tel-RET-BaF3 (stably expressing RET kinase). The above cell lines were all constructed by our laboratory according to the following method: the kinase region sequences of human P210 Bcr-Abl, ABL, C-KIT, C-KIT V559D, C-KIT V559D/V654A, C-KIT N822K, C-KIT V654A, C-KIT L567P, C-KIT T670I, PDGFRα, PDGFRβ, VEGFR2, RET were amplified respectively by PCR, inserted respectively into MSCV-Puro vectors harboring N-terminal TEL fragment and/or NPM fragment and/or TPR fragment (Clontech), then the vectors were stably transfected into mouse BaF3 cells by retrovirus methods and growth factor IL-3 was removed, eventually obtaining cell lines that are transferred protein (P210 Bcr-Abl, ABL, C-KIT, C-KIT V559D, C-KIT V559D/V654A, C-KIT N822K, C-KIT V654A, C-KIT L567P, C-KIT T670I, PDGFRα, PDGFRβ, VEGFR2, RET)-dependent.
(§2) The cells were incubated for 72 hours, and then the number of viable cells was quantified with a microplate reader by using CCK-8 Cell Viability Assay Kit (purchased from Bestbio Company, Shanghai, China) (CCK-8 can be reduced by dehydrogenase in living cells to a highly water-soluble yellow formazan product, and the amount of formazan produced is proportional to the number of living cells).

The test system of another assay is GIST-T1 cells. Kind of assay: Cancer cell proliferation, CCK-8, GIST-T1. The format is cell-based. Conditions: Homo sapiens, GISTT1, GIST-T1, KIT WT, 72 hours.
Excerpt: (§3) In the present example, the following cells were used: chronic myelogenous leukemia cells K562 (expressing P210 Bcr-Abl mutant gene), human megakaryocytic leukemia cells MEG-01 (expressing P210 Bcr-Abl mutant gene), human peripheral blood basophilic leukemia cells Ku812 (expressing Bcr-Abl mutant gene) (all above cells purchased from ATCC, USA), human gastrointestinal stromal tumor cell lines GIST-T1 cells (expressing wild-type C-KIT gene) (purchased from Cosmo Bio Co., Ltd., Japan), human gastrointestinal stromal tumor cell lines GIST-882 cells (expressing wild-type C-KIT gene) (presented by the Professor Gray Lab, Dana-Farber Cancer Institute, Harvard University, USA), mouse pro-B cells BaF3 (purchased from ATCC, USA).
as §2

Another assay has as its system GIST-882 cells. Kind of assay: Cancer cell proliferation, CCK-8, GIST-882. The format is cell-based. As to conditions: Homo sapiens, GIST882, GIST-882, KIT WT, 72 hours.
Excerpt: as §3, §2

Assay [2] deals with Tel-cKit/V559D-BaF3 cells (KIT V559D). Description: Cell proliferation, CCK-8, Tel-cKit/V559D-BaF3. The format is cell-based. Conditions: Mus musculus, 72 hours.
Excerpt: as §1, §2

Assay [3] relates to Tel-cKit/V559D/V654A-BaF3 cells (KIT V559D/V654A). Kind of assay: Cell proliferation, CCK-8, Tel-cKit/V559D/V654A-BaF3. The format is cell-based. As to conditions: Mus musculus, 72 hours.
Excerpt: as §1, §2

The test system of assay [4] is Tel-cKit/N822K-BaF3 cells (KIT N822K). Kind of assay: Cell proliferation, CCK-8, Tel-cKit/N822K-BaF3. The format is cell-based. As to conditions: Mus musculus, 72 hours.
Excerpt: as §1, §2

For assay [5], the system named is Tel-cKit/V654A-BaF3 cells (KIT V654A). Kind of assay: Cell proliferation, CCK-8, Tel-cKit/V654A-BaF3. The format is cell-based. As to conditions: Mus musculus, 72 hours.
Excerpt: as §1, §2

Assay [6] has as its system Tel-cKit/L576P-BaF3 cells (KIT L576P). Description: Cell proliferation, CCK-8, Tel-cKit/L576P-BaF3. It counts as cell-based. Conditions: Mus musculus, 72 hours.
Excerpt: as §1, §2

The subject of assay [7] is Tel-cKit/T670I-BaF3 cells (KIT T670I). Kind of assay: Cell proliferation, CCK-8, Tel-cKit/T670I-BaF3. It counts as cell-based. As to conditions: Mus musculus, 72 hours.
Excerpt: as §1, §2

Assay [8] concerns Tel-RET-BaF3 cells (RET WT). Kind of assay: Cell proliferation, CCK-8, Tel-RET-BaF3. It counts as cell-based. Conditions: Mus musculus, 72 hours.
Excerpt: as §1, §2

The test system of assay [9] is Tel-VEGFR2-BaF3 cells (VEGFR2). Description: Cell proliferation, CCK-8, Tel-VEGFR2-BaF3. The format is cell-based. As to conditions: Mus musculus, Tel-VEGFR2-BaF3, VEGFR2, 72 hours.
Excerpt: as §1, §2

In the next assay the test system is BaF3 cells. Description: Cell proliferation, CCK-8, parental BaF3. The format is cell-based. Conditions: Mus musculus, 72 hours.
Excerpt: as §3, §2

Assay [10] deals with cells expressing wild-type C-KIT kinase. Kind of assay: Cell proliferation, C-KIT cells. It counts as cell-based. Conditions: cells expressing C-KIT kinase, summary of Table 2.
Excerpt: as §3, §1, §2

The test system of assay [11] is gastrointestinal stromal tumor cell lines GIST-T1. Kind of assay: Mouse tumor model of GIST-T1 cells. The format is in vivo. As to conditions: 100 mg/kg oral daily, Day 28 after administration. On the procedure: (§4) 1. 4-6 week-old Bal b/c female mice were purchased from Shanghai SLAC Experimental Animal Co., Ltd., and were raised in a SPF-level laboratory. Drinking water and padding were both subjected to aseptic processing via high-pressure disinfection, and all operations of the mice were conducted under aseptic conditions;
(§5) 2. About 5×10^6 gastrointestinal stromal tumor cell lines GIST-T1 or GIST-882 (purchased from ATCC) were respectively injected subcutaneously at left side back of all mice at Day 0;
(§6) 5. Mice were sacrificed on Day 36 (for GIST-882 mouse model) or Day 43 (GIST-T1 mouse model) and subcutaneous tumors were taken out and weighed for comparison;
(§7) 6. Tumor tissue specimens were prepared into protein lysate samples for further usage;
(§8) 7. Growth trend of subcutaneous tumors from Day 16 to Day 43 was derived, and tumor volume was calculated as length×width×width/2 mm^3.

Assay [12] has as its system gastrointestinal stromal tumor cell lines GIST-882. Kind of assay: Mouse tumor model of GIST-882 cells. It counts as in vivo. As to conditions: GIST-882 model, 100 mg/kg oral daily, Day 21 after administration. On the procedure:
as §4, §5, §6, §7, §8

Assay [13] deals with Tel-PDGFRα-BaF3 cells (PDGFRα). Kind of assay: Cell proliferation, CCK-8, Tel-PDGFRα-BaF3. The format is cell-based. As to conditions: Mus musculus, 72 hours.
Excerpt: as §1, §2

The subject of assay [14] is Tel-PDGFRβ-BaF3 cells (PDGFRβ). Kind of assay: Cell proliferation, CCK-8, Tel-PDGFRβ-BaF3. It counts as cell-based. Conditions: Mus musculus, 72 hours.
Excerpt: as §1, §2

Molecules are shown by their SMILES.

Consider `Cc1ccc(NC(=O)c2ccc(CN3CCN(C)CC3)cc2)cc1Nc1nccc(-c2cccnc2)n1` [imatinib], for which the GI50 came out at 412 nM in assay [1]; 8 nM in the assay on GIST-T1 cells; 14 nM in the assay with GIST-882 cells; 39 nM in assay [2]; 3000 nM in [3]; 1290 nM in [4]. Further, the GI50 in assay [5] was 2490 nM; in [6], 102 nM; in assay [7], 6670 nM; in assay [8], 6310 nM; in assay [9] it was > 10000 nM; in the assay with BaF3 cells, > 10000 nM. Further, in [10], the GI50 is < 500 nM. In addition, the tumor inhibition rate is given as 72.4% in assay [11] and 49% in assay [12].
Turning to `C=CC(=O)N1CCC(Oc2cc(NC(=O)c3ccc(CN4CCN(C)CC4)c(C(F)(F)F)c3)ccc2C)CC1` [Compound C], the GI50 was determined as 30 nM with GIST-T1 cells; 36 nM in [2]; 380 nM in assay [4]; 401 nM in [5]; 952 nM in [7]; 490 nM in [8]. Also, the GI50 in assay [13] was 36 nM; in assay [14] it was 42 nM; in assay [9] it was 5 nM; in the assay on BaF3 cells it was > 10000 nM; in [10], < 500 nM.

One may read the GI50 as the concentration that inhibits growth by half.
